Source: patent US20190209465A1, “PROCESS FOR PREPARING PHARMACEUTICAL OPHTHALMIC COMPOSITIONS OF BRINZOLAMIDE” (priority 2016, published 2019)

Legend:
[1] = Solubility study of ophthalmically acceptable excipients (visual, incremental addition of drug, then heating); type: physicochemical
[2] = cited from earlier work
[3] = Solubility study of oil/surfactant combination (excess drug, heating, centrifugation, HPLC of supernatant); type: physicochemical; conditions: in PEG 200 (5 g), on heating
[4] = as above; type: physicochemical; conditions: for mg API dissolved temperature: on heating; for Assay: supernatant by HPLC
Procedure: Additional solubility trials were planned in order to see the impact of surfactant/oil combination on solubility of Brinzolamide. 5 g of each of the vehicles of Table 2 was added in 10 ml beakers under stirring, containing excesses of drug. Afterwards, the mixture was heated to improve solubilization. After equilibrium was achieved, the mixture was centrifuged at 4000 rpm for 10 minutes and the supernatant was quantified by high-performance liquid chromatography.

[5] = in Kolliphor EL + IPM (5 g + 1 g)
[6] = in Kolliphor EL + IPM (5 g + 3 g)
[7] = in Kolliphor EL + IPM (5 g + 5 g)
[8] = in Tween 80 + IPM + Kolliphor EL (5 g + 1 g + 3.1 g)
[9] = in Tween 80 + IPM + Kolliphor EL (5 g + 1 g + 4.6 g)
[10] = in Tween 80 + IPM + Kolliphor EL (5 g + 1 g + 12.5 g)

- Brinzolamide dissolved in 10 g ([1]; in Anfopon): 60 mg
- Brinzolamide dissolved in 10 g ([1]; in Dubcare Olga SF): 60 mg
- Brinzolamide dissolved in 10 g ([1]; in Isopropyl Myristate (Kollicream IPM)): 60 mg
- Brinzolamide dissolved in 10 g ([1]; in Kolliphor EL): 1015.1 mg
- Brinzolamide dissolved in 10 g ([1]; in Kollisolv GTA): 210 mg
- Brinzolamide dissolved in 10 g ([1]; in Myritol 318): 60 mg
- Brinzolamide dissolved in 10 g ([1]; in PEG200): 2000 mg
- Brinzolamide dissolved in 10 g ([1]; in Radia 7104): 60 mg
- Brinzolamide dissolved in 10 g ([1]; in Sesame Oil): 60 mg
- Brinzolamide dissolved in 10 g ([1]; in Silicone Oil): 60 mg
- Brinzolamide dissolved in 10 g ([1]; in Transcutol): 800 mg
- Brinzolamide dissolved in 10 g ([1]; in Tween 80): 2000 mg
- mg API dissolved temperature [3]: 1042.3 mg
- API dissolved ([4]; in Kolliphor EL (5 g)): 203.0 mg/mL
- Total mg dissolved ([4]; in Kolliphor EL (5 g)): 1015.1 mg
- mg API dissolved @ RT ([4]; in Kolliphor EL (5 g)): 502.6 mg
- mg API dissolved temperature ([4]; in Kolliphor EL (5 g)): 512.5 mg
- Assay ([4]; in Kolliphor EL (5 g)): 177.65 mg/mL
- API dissolved [4, 5]: 167.1 mg/mL
- Total mg dissolved [4, 5]: 1002.3 mg
- mg API dissolved @ RT [4, 5]: 802.3 mg
- mg API dissolved temperature [4, 5]: 200.0 mg
- Assay [4, 5]: 104.70 mg/mL
- API dissolved [4, 6]: 126.6 mg/mL
- Total mg dissolved [4, 6]: 1012.7 mg
- mg API dissolved @ RT [4, 6]: 500.5 mg
- mg API dissolved temperature [4, 6]: 512.2 mg
- Assay [4, 6]: 76.75 mg/mL
- API dissolved [4, 7]: 70.8 mg/mL
- Total mg dissolved [4, 7]: 708.0 mg
- mg API dissolved @ RT [4, 7]: 401.3 mg
- mg API dissolved temperature [4, 7]: 306.7 mg
- Assay [4, 7]: 68.97 mg/mL
- API dissolved ([4]; in PEG 200 (5 g)): 390.1 mg/mL
- Total mg dissolved ([4]; in PEG 200 (5 g)): 1950.5 mg
- mg API dissolved @ RT ([4]; in PEG 200 (5 g)): 908.2 mg
- Assay ([4]; in PEG 200 (5 g)): 236.63 mg/mL
- API dissolved ([4]; in Transcutol (5 g)): 400.0 mg/mL
- Total mg dissolved ([4]; in Transcutol (5 g)): 2.000 mg
- mg API dissolved @ RT ([4]; in Transcutol (5 g)): 1008.5 mg
- mg API dissolved temperature ([4]; in Transcutol (5 g)): 991.5 mg
- Assay ([4]; in Transcutol (5 g)): 189.94 mg/mL
- API dissolved ([4]; in Tween 80 (5 g)): 204.2 mg/mL
- Total mg dissolved ([4]; in Tween 80 (5 g)): 1020.9 mg
- mg API dissolved @ RT ([4]; in Tween 80 (5 g)): 501.9 mg
- mg API dissolved temperature ([4]; in Tween 80 (5 g)): 519.0 mg
- Assay ([4]; in Tween 80 (5 g)): 169.08 mg/mL
- API dissolved ([4]; in Tween 80 + IPM (5 g + 1 g)): 133.8 mg/mL
- Total mg dissolved ([4]; in Tween 80 + IPM (5 g + 1 g)): 802.8 mg
- mg API dissolved @ RT ([4]; in Tween 80 + IPM (5 g + 1 g)): 400.9 mg
- mg API dissolved temperature ([4]; in Tween 80 + IPM (5 g + 1 g)): 401.9 mg
- Assay ([4]; in Tween 80 + IPM (5 g + 1 g)): 113.05 mg/mL
- API dissolved ([4]; in Tween 80 + IPM (5 g + 3 g)): 100.3 mg/mL
- Total mg dissolved ([4]; in Tween 80 + IPM (5 g + 3 g)): 802.7 mg
- mg API dissolved @ RT ([4]; in Tween 80 + IPM (5 g + 3 g)): 400.3 mg
- mg API dissolved temperature ([4]; in Tween 80 + IPM (5 g + 3 g)): 402.4 mg
- Assay ([4]; in Tween 80 + IPM (5 g + 3 g)): 84.49 mg/mL
- API dissolved ([4]; in Tween 80 + IPM (5 g + 5 g)): 90.9 mg/mL
- Total mg dissolved ([4]; in Tween 80 + IPM (5 g + 5 g)): 908.6 mg
- mg API dissolved @ RT ([4]; in Tween 80 + IPM (5 g + 5 g)): 400.0 mg
- mg API dissolved temperature ([4]; in Tween 80 + IPM (5 g + 5 g)): 508.6 mg
- Assay ([4]; in Tween 80 + IPM (5 g + 5 g)): 52.08 mg/mL
- API dissolved [4, 8]: 110.9 mg/mL
- Total mg dissolved [4, 8]: 1009.1 mg
- mg API dissolved @ RT [4, 8]: 501.5 mg
- mg API dissolved temperature [4, 8]: 507.6 mg
- Assay [4, 8]: 88.93 mg/mL
- API dissolved [4, 9]: 110.1 mg/mL
- Total mg dissolved [4, 9]: 1002.1 mg
- mg API dissolved @ RT [4, 9]: 404.0 mg
- mg API dissolved temperature [4, 9]: 602.1 mg
- Assay [4, 9]: 102.12 mg/mL
- API dissolved [4, 10]: 43.5 mg/mL
- Total mg dissolved [4, 10]: 805.6 mg
- mg API dissolved @ RT [4, 10]: 403.4 mg
- mg API dissolved temperature [4, 10]: 402.2 mg
- Assay [4, 10]: 39.65 mg/mL
SMILES: CCN[C@H]1CN(CCCOC)S(=O)(=O)c2sc(S(N)(=O)=O)cc21 [Brinzolamide, (R)-4-ethylamino-3,4-dihydro-2-(3-methoxy) propyl-2H-thieno[3,2-e]-1,2-thiazine-6-sulfonamide 1, 1 dioxide]
- solubility in alcohol and methanol ([2]; alcohol and methanol): slightly soluble
- solubility in water versus pH ([2]; water, different pH): pH dependent with minimal solubility at neutral pH and increased solubility at more basic or acidic pH
- solubility in water ([2]; water): insoluble
